The source of these data is patent publication EP3593822A1, “THERAPEUTIC AND DIAGNOSTIC APPLICATIONS OF A NEW METHOD OF MONITORING OF NEUROGLIAL INTERACTION MEMRI)” (Theranexus, priority 2018, dated 2020).

Counter-ions that a name gives are not always drawn.

This assay addresses T1, Cx43 (Mus musculus, UniProt P23242).
T1 construct: from tissue; host or cells: brain of living wild-type C57BL/6 male mice (in vivo)
The assay is described as follows: Manganese-enhanced MRI (MEMRI) of mouse brain after administration of connexin modulators. It counts as in vivo, wild-type C57BL/6 male mice. Conditions: for T1-w signal intensity (% of control): 1 mg/kg i.p. 2.5h before imaging, 24h after MnCl2 50 mg/kg i.p., mean ± SEM; for increase of T1-w signal intensity: n=6, change versus control, 1 mg/kg i.p. The procedure: The MRI measurements were performed on 42 wild-type C57BL/6 male mice. All mice weighed between 25 and 35 g. Mice were housed 4-5 per cage under standard conditions (12/12 h light-dark cycle, light on at 7 am, 22 ± 1°C ambient temperature, 60% relative humidity). This work was carried out in accordance with the Policies of the French Committee of Ethics. Animal surgery and experimentations conducted in this study were authorized by the French Direction of Veterinary Services and all efforts were made to improve animal welfare and minimize animals suffering.
All animals were injected intraperitoneally with MnCl2 50 mg/kg. Animals received an injection of treatment (or saline) 24h after the MnCl2 administration, and were imaged 2.5h later.
The mice were anesthetized with 0.5-1.0% isoflurane in air throughout the experiments. The respiration rate was monitored and the body temperature was maintained at 36.5 °C using an MR-compatible, feedback-controlled air heating system (model 1025; SA Instruments, NY). A capillary filled with 100 µM MnCl2 was placed on the head, inside the RF coil, and was used as signal intensity reference.
The T1-weighted images were acquired using a 3D rapid acquisition with relaxation enhancement (RARE) sequence: RARE factor 4, repetition time/echo time = 250 ms / 6 ms, 4 averages. For T1 relaxation time measurements, a true fast Imaging with Steady-state free Precession (trueFISP) sequence was used with the following acquisition parameters: repetition time/echo time = 3.66/1.83 ms, flip angle = 10, inversion time = 80 ms, number of inversion times = 60, 2 averages.
The position of the brain image was co-registered to a template using SPM8 software (Welcome Trust Center for Neuroimaging, UK). The template image was co-registered to mouse brain atlas (Paxinos and Franklin's the Mouse Brain in Stereotaxic Coordinates 3rd Edition). T1-weighted signals were normalized using the signal intensity from the reference tube. T1 maps were calculated as described previously elsewhere (74). Eighteen regions of interest (ROIs) were defined using the mouse brain atlas.
The averaged T1-weighted signals and T1 values were calculated using an in house written Matlab program. To compensate for differences in coil sensitivity between left and right channels we calculated the signal intensities in ROIs drawn in the left and right cerebral cortex, including the somatosensory cortex and insular cortex, (ROIcortex_left ROIcortex_right). The averaged T1-weighted signal intensity on the left side (SIleft) was then corrected following the equation: SIleft_corrected = SIleft × SIcortex_right /SIcortex_left [formula]
Statistical analyses were performed using GraphPad Prism version 7.0c. Data were analyzed using Mann-Whitney non-parametric test, paired t test or one sample t test compared to the hypothetical value 1 or 100 as appropriate. In each experiment, a level of p<0.05 was accepted as evidence for a statistically significant effect. * p<0.05; ** p<0.01; *** p<0.001. Response of the MEMRI signal after drugs administration are expressed as means ± SEM of percent of control. The remaining data are expressed as mean ± SEM.
For all, MEMRI signals are expressed as percentage of control. Statistical significances are based on the comparison to the hypothetical value 100%.

Setting [1] is: LPB = Lateral parabrachial nucleus.
The mark [2] stands for this setting: mPFC = Medial prefrontal cortex.

T1 sequence (P23242 2-382 limits assumed): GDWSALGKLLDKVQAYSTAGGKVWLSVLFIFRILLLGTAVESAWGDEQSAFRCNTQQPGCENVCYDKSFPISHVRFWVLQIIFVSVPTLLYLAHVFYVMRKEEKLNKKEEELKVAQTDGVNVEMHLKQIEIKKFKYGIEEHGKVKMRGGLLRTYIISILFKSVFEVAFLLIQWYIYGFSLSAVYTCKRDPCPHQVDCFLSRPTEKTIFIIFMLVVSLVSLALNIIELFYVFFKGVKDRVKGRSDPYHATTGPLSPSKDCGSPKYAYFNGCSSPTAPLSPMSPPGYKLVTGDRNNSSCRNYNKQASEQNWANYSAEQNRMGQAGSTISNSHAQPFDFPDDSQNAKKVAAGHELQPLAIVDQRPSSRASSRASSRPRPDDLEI

For `O=C(NCC1CCCCN1)c1cc(OCC(F)(F)F)ccc1OCC(F)(F)F` (centres unmarked) [flecainide, flecainide acetate salt], the “T1-w signal intensity (% of control)” value by setting is: (AC = Auditory cortex) 114 ± 4.04 % of control; (Cg = Cingulate cortex) 123 ± 5.73 % of control; (Cpu = Caudate putamen) 120 ± 6.01 % of control; (DRa = Dorsal raphe pallidus) 122 ± 6.86 % of control; (Hip = Hippocampus) 118 ± 4.73 % of control; (Hyp = Hypothalamus) 121 ± 7.05 % of control. Also, the “T1-w signal intensity (% of control)” value is reported as 118 ± 5.62 % of control (IC = Insular cortex); 119 ± 5.69 % of control (LC = Locus coeruleus); 119 ± 6.07 % of control under setting [1]; 122 ± 5.09 % of control (MC = Motor cortex); 123 ± 9.21 % of control (OB = Olfactory bulb); 123 ± 8.23 % of control (OC = Orbital cortex). Moreover, the “T1-w signal intensity (% of control)” value is 121 ± 7.09 % of control (PrL = Prelimbic cortex); 120 ± 4.88 % of control (SC = Somatosensory cortex); 117 ± 6.97 % of control (SN = Substantia nigra); 119 ± 6.95 % of control (Sep = Septum); 121 ± 5.47 % of control (ThN = Thalamic nuclei); 121 ± 6.86 % of control under setting [2]. Moreover, the “increase of T1-w signal intensity” value is “approximately +21.9%” (dorsal raphe pallidus), “~+20.9%” (hypothalamus), “~+19%” (lateral parabrachial nucleus) and “~+19.2%” (locus coeruleus).

On to `Cc1ccc(Cl)c(Nc2ccccc2C(=O)O)c1Cl` [meclofenamic acid], for which the “T1-w signal intensity (% of control)” value (AC = Auditory cortex) is 117 ± 5.68 % of control; the “T1-w signal intensity (% of control)” value (Cg = Cingulate cortex) is recorded as 127 ± 4.49 % of control; the “T1-w signal intensity (% of control)” value (Cpu = Caudate putamen) is reported as 130 ± 3.90 % of control; the “T1-w signal intensity (% of control)” value (DRa = Dorsal raphe pallidus) is recorded as 112 ± 5.31 % of control; the “T1-w signal intensity (% of control)” value (Hip = Hippocampus) was 118 ± 4.32 % of control; the “T1-w signal intensity (% of control)” value (Hyp = Hypothalamus) is reported as 118 ± 5.38 % of control. Besides, the “T1-w signal intensity (% of control)” value is recorded as 128 ± 5.17 % of control (IC = Insular cortex); 104 ± 6.23 % of control (LC = Locus coeruleus); 106 ± 6.15 % of control under setting [1]; 106 ± 6,15 % of control (LPB = Lateral parabrachial nucleus, listed as MFA); 122 ± 4.61 % of control (MC = Motor cortex); 147 ± 4.91 % of control (OB = Olfactory bulb). For the same molecule, the “T1-w signal intensity (% of control)” value by setting is: (OC = Orbital cortex) 138 ± 4.69 % of control; (PrL = Prelimbic cortex) 136 ± 4.41 % of control; (SC = Somatosensory cortex) 120 ± 4.90 % of control; (SN = Substantia nigra) 118 ± 5.67 % of control; (Sep = Septum) 136 ± 3.68 % of control; (ThN = Thalamic nuclei) 120 ± 4.87 % of control. Further, under setting [2], the “T1-w signal intensity (% of control)” value is listed as 136 ± 4.33 % of control. Further, the “increase of T1-w signal intensity” value is “approximately +18.5%” (hypothalamus), “~+47.4%” (olfactory bulb) and “~+17.9%” (substantia nigra).

Take `OC(c1cc(C(F)(F)F)nc2c(C(F)(F)F)cccc12)C1CCCCN1` (centres unmarked) [mefloquine, Mefloquine]: the “T1-w signal intensity (% of control)” value is, setting by setting: (DRa = Dorsal raphe pallidus) 113 ± 6.84 % of control; (Hyp = Hypothalamus) 113 ± 8.39 % of control; (LC = Locus coeruleus) 111 ± 7.61 % of control; under setting [1], 111 ± 6.96 % of control. In addition, the “increase of T1-w signal intensity” value was “+26.5%” (olfactory bulb) and “+19,2%” (substantia nigra).
